Experimental data from article doi:10.1101/2024.08.13.607785v1 (biorxiv, 2024).
One block for each compound: values may come before it.

Columns and labels:
[1] = target: T1, Discoidin domain-containing receptor 2 ; DDR2 ; Q16832 (Homo sapiens, UniProt Q16832); set-up: species or system mixed lysate of K562, MV4-11, THP-1, NCI-H1155; settings: binder
T1 sequence (Q16832 1-855): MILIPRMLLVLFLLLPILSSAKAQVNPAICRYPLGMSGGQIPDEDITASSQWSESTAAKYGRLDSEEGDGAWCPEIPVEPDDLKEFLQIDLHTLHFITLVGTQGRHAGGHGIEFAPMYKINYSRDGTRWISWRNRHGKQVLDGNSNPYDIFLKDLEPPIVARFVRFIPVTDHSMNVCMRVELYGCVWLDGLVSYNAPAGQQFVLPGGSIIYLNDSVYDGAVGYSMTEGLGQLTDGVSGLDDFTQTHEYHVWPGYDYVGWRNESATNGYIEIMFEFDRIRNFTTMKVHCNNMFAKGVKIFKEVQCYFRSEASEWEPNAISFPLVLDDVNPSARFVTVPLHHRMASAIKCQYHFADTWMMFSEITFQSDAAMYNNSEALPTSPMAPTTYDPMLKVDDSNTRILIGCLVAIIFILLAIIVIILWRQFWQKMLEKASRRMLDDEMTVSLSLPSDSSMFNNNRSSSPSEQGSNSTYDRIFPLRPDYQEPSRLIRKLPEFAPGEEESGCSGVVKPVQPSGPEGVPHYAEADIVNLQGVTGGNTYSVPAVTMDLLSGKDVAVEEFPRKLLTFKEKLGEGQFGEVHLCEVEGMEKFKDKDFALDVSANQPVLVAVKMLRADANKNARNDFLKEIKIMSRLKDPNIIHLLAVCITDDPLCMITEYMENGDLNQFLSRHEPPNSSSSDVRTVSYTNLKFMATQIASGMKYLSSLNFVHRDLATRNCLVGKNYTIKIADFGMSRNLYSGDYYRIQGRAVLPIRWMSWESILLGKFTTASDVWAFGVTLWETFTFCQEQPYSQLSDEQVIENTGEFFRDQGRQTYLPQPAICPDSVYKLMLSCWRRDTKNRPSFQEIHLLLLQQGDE

[2] = target: Cyclin-dependent kinase 6 ; CDK6 ; Q00534 (Homo sapiens, UniProt Q00534); assay: biochemical; set-up: species or system human cell line lysate
Chain of Cyclin-dependent kinase 6 ; CDK6 ; Q00534 (Q00534 whole entry, one chain of several): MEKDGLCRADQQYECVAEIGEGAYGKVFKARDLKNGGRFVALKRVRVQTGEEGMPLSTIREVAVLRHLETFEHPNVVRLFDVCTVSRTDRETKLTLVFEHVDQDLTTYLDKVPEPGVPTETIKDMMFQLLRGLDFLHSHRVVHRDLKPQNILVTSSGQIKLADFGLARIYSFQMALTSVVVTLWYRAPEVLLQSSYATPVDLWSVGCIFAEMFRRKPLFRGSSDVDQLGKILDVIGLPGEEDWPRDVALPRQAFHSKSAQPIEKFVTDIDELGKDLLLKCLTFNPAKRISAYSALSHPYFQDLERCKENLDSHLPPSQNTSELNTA

[3] = target: Cyclin-dependent kinase 10 ; CDK10 ; Q15131 (Homo sapiens, UniProt Q15131); assay: biochemical; set-up: species or system human cell line lysate
[4] = target: Cyclin-dependent kinase 1 ; CDK1 ; P06493 (Homo sapiens, UniProt P06493); assay: biochemical; set-up: species or system human cell line lysate
Chain of Cyclin-dependent kinase 1 ; CDK1 ; P06493 (P06493 whole entry, one chain of several): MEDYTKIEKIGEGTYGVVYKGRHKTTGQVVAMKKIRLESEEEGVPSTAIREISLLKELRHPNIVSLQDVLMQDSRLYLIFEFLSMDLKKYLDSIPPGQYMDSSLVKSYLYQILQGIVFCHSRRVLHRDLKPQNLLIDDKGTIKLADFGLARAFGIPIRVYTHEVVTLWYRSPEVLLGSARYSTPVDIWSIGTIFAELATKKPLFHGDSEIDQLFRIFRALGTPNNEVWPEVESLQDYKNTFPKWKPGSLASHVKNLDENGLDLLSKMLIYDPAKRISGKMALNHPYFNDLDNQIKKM

[5] = target: Cyclin-dependent-like kinase 5 ; CDK5 ; Q00535 (Homo sapiens, UniProt Q00535); assay: biochemical; set-up: species or system human cell line lysate
Chain of Cyclin-dependent-like kinase 5 ; CDK5 ; Q00535 (Q00535 whole entry, one chain of several): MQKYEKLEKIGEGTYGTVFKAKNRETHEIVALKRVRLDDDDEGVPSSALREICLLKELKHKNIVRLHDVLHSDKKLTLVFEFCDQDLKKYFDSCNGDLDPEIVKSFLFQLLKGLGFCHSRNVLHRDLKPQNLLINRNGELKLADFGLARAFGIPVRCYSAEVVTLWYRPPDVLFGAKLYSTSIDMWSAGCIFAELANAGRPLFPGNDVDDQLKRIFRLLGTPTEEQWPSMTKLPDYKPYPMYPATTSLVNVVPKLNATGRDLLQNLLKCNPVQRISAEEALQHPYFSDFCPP

[6] = target: Cyclin-dependent kinase 7 ; CDK7 ; P50613 (Homo sapiens, UniProt P50613); assay: biochemical; set-up: species or system human cell line lysate
Chain of Cyclin-dependent kinase 7 ; CDK7 ; P50613 (P50613 whole entry, one chain of several): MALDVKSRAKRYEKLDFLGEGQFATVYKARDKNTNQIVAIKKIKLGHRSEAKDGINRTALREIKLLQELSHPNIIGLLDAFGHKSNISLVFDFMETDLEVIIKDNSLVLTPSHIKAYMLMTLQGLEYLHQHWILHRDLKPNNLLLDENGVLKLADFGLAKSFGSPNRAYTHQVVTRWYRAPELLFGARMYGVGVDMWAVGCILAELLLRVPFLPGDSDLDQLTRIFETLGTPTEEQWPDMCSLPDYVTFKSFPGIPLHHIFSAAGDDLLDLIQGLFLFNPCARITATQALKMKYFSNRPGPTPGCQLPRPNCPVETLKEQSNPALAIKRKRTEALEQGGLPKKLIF

[7] = target: High affinity nerve growth factor receptor ; NTRK1 ; P04629 (Homo sapiens, UniProt P04629); assay: biochemical; set-up: species or system human cell line lysate
Chain of High affinity nerve growth factor receptor ; NTRK1 ; P04629 (P04629 whole entry, the tested form may be a part): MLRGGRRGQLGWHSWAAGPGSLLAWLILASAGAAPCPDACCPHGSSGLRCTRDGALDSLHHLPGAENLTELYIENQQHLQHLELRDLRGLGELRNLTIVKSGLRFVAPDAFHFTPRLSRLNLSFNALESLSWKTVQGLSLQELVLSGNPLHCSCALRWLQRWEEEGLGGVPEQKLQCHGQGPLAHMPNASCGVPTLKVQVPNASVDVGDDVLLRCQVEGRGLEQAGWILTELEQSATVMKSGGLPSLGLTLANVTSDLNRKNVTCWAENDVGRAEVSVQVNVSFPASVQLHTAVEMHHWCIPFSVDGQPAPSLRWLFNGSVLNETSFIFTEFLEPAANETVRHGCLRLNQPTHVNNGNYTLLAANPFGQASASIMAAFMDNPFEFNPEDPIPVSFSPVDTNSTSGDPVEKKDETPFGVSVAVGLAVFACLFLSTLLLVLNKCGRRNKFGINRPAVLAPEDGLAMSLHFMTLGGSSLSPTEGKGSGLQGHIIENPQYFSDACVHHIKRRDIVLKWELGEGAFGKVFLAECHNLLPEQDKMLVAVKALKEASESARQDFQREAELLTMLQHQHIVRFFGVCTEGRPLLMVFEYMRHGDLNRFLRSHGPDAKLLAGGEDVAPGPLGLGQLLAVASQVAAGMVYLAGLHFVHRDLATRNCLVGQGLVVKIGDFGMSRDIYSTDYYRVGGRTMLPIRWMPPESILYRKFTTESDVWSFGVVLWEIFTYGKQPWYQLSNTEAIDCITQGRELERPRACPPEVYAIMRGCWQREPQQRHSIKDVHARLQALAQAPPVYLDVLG

[8] = target: Epithelial discoidin domain-containing receptor 1 ; DDR1 ; Q08345 (Homo sapiens, UniProt Q08345); assay: biochemical; set-up: species or system human cell line lysate
Chain of Epithelial discoidin domain-containing receptor 1 ; DDR1 ; Q08345 (Q08345 whole entry, the tested form may be a part): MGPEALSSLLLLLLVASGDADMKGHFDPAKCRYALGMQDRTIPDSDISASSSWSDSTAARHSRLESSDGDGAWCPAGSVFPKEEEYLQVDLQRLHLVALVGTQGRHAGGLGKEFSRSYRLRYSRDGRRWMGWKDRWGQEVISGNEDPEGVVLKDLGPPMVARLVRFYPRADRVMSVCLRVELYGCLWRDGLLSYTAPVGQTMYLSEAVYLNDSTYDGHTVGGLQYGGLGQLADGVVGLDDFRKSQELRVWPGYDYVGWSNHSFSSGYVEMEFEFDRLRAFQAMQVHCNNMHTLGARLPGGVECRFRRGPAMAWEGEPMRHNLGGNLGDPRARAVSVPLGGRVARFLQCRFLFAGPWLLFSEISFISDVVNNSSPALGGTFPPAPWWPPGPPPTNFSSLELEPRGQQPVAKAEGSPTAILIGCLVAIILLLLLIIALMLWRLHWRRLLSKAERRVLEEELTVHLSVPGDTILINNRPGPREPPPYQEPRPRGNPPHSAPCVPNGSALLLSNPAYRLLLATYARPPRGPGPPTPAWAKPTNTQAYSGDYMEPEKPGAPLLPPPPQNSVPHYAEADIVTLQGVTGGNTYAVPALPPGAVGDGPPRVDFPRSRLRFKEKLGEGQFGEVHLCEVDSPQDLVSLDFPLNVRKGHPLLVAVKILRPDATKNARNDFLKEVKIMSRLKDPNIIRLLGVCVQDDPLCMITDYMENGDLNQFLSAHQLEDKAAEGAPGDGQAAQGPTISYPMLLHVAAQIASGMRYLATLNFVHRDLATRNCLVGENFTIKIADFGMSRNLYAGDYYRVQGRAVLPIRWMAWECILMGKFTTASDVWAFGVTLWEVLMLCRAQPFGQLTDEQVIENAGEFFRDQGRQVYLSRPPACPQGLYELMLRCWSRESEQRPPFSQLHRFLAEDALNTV

[9] = target: Cyclin-dependent kinase 16 ; CDK16 ; Q00536 (Homo sapiens, UniProt Q00536); assay: biochemical; set-up: species or system human cell line lysate
[10] = target: Cyclin-dependent kinase 12 ; CDK12 ; Q9NYV4 (Homo sapiens, UniProt Q9NYV4); assay: biochemical; set-up: species or system human cell line lysate
Chain of Cyclin-dependent kinase 12 ; CDK12 ; Q9NYV4 (Q9NYV4 whole entry, canonical isoform, one chain of several): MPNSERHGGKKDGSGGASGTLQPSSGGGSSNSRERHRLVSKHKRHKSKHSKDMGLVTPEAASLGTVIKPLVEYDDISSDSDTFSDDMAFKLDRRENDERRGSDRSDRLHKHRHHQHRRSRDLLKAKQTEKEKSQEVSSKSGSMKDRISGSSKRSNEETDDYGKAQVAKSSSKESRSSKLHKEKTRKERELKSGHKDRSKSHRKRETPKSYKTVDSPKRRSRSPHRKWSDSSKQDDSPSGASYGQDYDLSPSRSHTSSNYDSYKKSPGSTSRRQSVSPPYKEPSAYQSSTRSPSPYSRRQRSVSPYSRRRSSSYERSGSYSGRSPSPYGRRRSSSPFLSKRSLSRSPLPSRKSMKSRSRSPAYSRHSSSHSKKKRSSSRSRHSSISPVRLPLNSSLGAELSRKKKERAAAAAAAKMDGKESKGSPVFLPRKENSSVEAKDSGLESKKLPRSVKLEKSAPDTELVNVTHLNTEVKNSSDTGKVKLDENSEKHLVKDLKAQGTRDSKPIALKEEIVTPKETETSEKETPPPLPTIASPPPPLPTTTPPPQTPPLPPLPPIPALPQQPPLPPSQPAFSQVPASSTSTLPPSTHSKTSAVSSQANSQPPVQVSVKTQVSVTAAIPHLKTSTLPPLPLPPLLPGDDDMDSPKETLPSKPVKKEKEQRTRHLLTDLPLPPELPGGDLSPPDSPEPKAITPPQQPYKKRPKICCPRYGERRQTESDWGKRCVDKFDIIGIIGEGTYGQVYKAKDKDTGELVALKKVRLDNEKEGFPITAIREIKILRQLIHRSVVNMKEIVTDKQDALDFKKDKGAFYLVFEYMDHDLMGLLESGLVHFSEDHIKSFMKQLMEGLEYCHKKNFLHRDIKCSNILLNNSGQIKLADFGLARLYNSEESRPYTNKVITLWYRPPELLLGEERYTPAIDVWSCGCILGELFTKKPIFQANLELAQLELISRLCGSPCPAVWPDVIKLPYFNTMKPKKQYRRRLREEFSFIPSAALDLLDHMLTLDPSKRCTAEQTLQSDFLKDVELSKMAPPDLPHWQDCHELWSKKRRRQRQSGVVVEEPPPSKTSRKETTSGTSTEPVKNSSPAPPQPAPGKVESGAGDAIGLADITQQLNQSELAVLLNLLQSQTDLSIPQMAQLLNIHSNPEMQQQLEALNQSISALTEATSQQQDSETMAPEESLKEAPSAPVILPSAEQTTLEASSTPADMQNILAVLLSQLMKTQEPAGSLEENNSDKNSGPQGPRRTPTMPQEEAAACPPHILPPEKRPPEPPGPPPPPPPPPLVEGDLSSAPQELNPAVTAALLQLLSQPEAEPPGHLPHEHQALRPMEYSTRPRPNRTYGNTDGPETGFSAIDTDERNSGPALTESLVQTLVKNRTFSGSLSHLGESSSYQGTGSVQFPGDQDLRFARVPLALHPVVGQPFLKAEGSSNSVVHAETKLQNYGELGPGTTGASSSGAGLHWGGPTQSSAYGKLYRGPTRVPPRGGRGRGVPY

[11] = target: Isoform 2 of Cyclin-dependent kinase 17 ; CDK17 ; Q00537-2 (Homo sapiens, UniProt Q00537); assay: biochemical; set-up: species or system human cell line lysate
Chain of Isoform 2 of Cyclin-dependent kinase 17 ; CDK17 ; Q00537-2 (Q00537 whole entry, canonical isoform, one chain of several): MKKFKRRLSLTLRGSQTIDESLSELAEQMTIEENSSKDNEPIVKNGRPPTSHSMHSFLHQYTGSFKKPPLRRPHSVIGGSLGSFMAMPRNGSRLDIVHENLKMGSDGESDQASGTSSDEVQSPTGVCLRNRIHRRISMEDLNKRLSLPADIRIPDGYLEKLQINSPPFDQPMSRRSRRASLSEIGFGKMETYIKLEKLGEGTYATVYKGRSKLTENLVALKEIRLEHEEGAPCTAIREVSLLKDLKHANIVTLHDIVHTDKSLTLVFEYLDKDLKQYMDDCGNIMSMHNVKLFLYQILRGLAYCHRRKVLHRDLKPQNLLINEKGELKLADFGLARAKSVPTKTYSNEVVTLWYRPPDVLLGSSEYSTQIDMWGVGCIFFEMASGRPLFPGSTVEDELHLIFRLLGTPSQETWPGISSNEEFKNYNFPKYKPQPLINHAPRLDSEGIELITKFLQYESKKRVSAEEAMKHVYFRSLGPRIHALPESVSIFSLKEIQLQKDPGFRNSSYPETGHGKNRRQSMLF

[12] = target: Isoform 4 of TRAF2 and NCK-interacting protein kinase ; TNIK ; Q9UKE5-4 (Homo sapiens, UniProt Q9UKE5); assay: biochemical; set-up: species or system human cell line lysate
[13] = target: T1, Discoidin domain-containing receptor 2 ; DDR2 ; Q16832; assay: biochemical; set-up: species or system human cell line lysate
[14] = target: Calcium/calmodulin-dependent protein kinase kinase 2 ; CAMKK2 ; Q96RR4 (Homo sapiens, UniProt Q96RR4); assay: biochemical; set-up: species or system human cell line lysate

DDA-MS / % Intensity (30 µM/DMSO) [1]: 10.23%
Compound: Cc1nc(Nc2ncc(C(=O)Nc3c(C)cccc3Cl)s2)cc(N2CCN(CCO)CC2)n1 [dasatinib]

IC50 [2]: > 10 µM
IC50 [3]: 1.09 µM
IC50 [4]: > 10 µM
IC50 [5]: > 10 µM
IC50 [6]: > 10 µM
Compound: COc1cc(F)ccc1-c1cc(Nc2cc(CS(C)(=N)=O)ccn2)ncc1F (centres unmarked) [BAY-1251152]

IC50 [7]: > 10 µM
IC50 [8]: > 10 µM
IC50 [9]: > 10 µM
IC50 [10]: > 10 µM
IC50 [11]: > 10 µM
IC50 [12]: > 10 µM
IC50 [13]: > 10 µM
IC50 [14]: > 10 µM
Compound: COc1cc(F)ccc1-c1ncnc(Nc2cccc(C[S@](C)(=N)=O)c2)n1 [BAY-1143572]
